Laboratory results from patent US20250262199A1, “TREATMENT OF AUTOIMMUNE SKIN DISEASE” (ASLAN PHARMACEUTICALS PTE LTD, priority 2022, published 2025).

What was measured:
Type in all cases: in vivo
[1] = system: Alopecia areata mouse model (C3H/HeJ mice); test: Hair coverage in Alopecia areata mouse model (C3H/HeJ skin graft); conditions: 150 or 300 mg/kg/day once daily oral gavage, week 8 time point (10 weeks after engraftment), vs vehicle; interim data; FIG. 3
Description: The C3H/HeJ mouse strain is known to spontaneously develop alopecia (AA) at a low frequency over a prolonged time frame. Transplantation of AA-affected skin from a C3H/HeJ mouse to unaffected C3H/HeJ recipients will induce the development of AA in nearly 100% of recipients over 4-8 weeks. Accordingly, to produce the AA mouse model, AA-affected C3H/HeJ skin was grafted onto groups of unaffected C3H/HeJ mice. The following treatment groups (n=10 per treatment group) were tested: • 1. Vehicle 0.5% methylcellulose (negative control) • 2. 150 mg/kg/day farudostat • 3. 300 mg/kg/day farudostat Treatments were administered once daily by oral gavage starting 2 weeks after engraftment and concluded after 12 weeks (84 days) of treatment. Photographs were taken at baseline, and every 4 weeks until the end of study Ventral hair growth was scored based on the photographs. Any mouse that had >98% hair coverage was classified as ‘no hair loss’.

[2] = system: vitiligo mouse model (transgenic Krt14-KitL* (SCF) mice); test: Vitiligo scoring in vitiligo mouse model; conditions: oral gavage, 6 weeks (30 treatment days), FIG. 1
PMEL T cells = test: Flow cytometry of PMEL T cell counts in tissues of vitiligo mouse model

Question: `COc1cccc(-c2cc(F)c(Nc3ncccc3C(=O)O)c(F)c2)c1` [farudostat, 2-(3,5-difluoro-3′-methoxybiphenyl-4-ylamino) nicotinic acid] was tested. Which “mean % hair coverage” value [1] did it give?
Answer: Its value is “slight improvement in % hair coverage”.

Question: What about the “final mean vitiligo score” value ([2]; 75 mg/kg/day, vs vehicle) of the same compound?
Answer: The value was “improvement in vitiligo score”.

Question: What about the “final mean vitiligo score” value ([2]; 150 mg/kg/day, vs vehicle and 75 mg/kg/day group) of the same compound?
Answer: The value was “greater improvement in vitiligo score compared to the 75 mg/kg/day group”.

Question: And the “mean PMEL count, 150 mg/kg/day compared to 75 mg/kg/day” value (PMEL T cells; 150 mg/kg/day, oral gavage, FIGS. 2A to 2D)?
Answer: The value was “greater reduction in mean PMEL count compared to 75 mg/kg/day”.

Question: And the “mean PMEL T cell count, dermis” value (PMEL T cells; farudostat 75 and 150 mg/kg/day, oral gavage, end of experiment, FIG. 2B)?
Answer: Its value is “reduction in mean Pmel T cell count”.

Question: What about the “mean PMEL T cell count, epidermis” value (PMEL T cells; farudostat 75 and 150 mg/kg/day, oral gavage, end of experiment, FIG. 2C) of the same compound?
Answer: The value was “reduction in mean Pmel T cell count”.

Question: And the “mean PMEL count, spleen” value (PMEL T cells; spleen, compared with anti-IFNγ positive control, FIG. 2D)?
Answer: Its value is “reduction in mean PMEL count in the spleen that was even greater than that observed for anti-IFNγ”.
